What follows are compounds tested against PKM2 (Homo sapiens, UniProt P14618) (assay: PKM2 Assay (activation, LDH-coupled, absorbance at 340 nm)). Conditions: Table 5.
Format: biochemical
Method in brief: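 Read-out was the 340 nm NADH absorbance change at 25 °C in an LDH-coupled system (PEP 0.15 mM, NADH 180 μM, ADP 0.7 mM to initiate) in 50 mM Tris pH 7.5, 100 mM KCl, 5 mM MgCl2. PKM2 at 50 ng/well was first preincubated with compound for 30 min at 4 °C. Activation given as AC50.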

Sequence of PKM2 (P14618 whole entry): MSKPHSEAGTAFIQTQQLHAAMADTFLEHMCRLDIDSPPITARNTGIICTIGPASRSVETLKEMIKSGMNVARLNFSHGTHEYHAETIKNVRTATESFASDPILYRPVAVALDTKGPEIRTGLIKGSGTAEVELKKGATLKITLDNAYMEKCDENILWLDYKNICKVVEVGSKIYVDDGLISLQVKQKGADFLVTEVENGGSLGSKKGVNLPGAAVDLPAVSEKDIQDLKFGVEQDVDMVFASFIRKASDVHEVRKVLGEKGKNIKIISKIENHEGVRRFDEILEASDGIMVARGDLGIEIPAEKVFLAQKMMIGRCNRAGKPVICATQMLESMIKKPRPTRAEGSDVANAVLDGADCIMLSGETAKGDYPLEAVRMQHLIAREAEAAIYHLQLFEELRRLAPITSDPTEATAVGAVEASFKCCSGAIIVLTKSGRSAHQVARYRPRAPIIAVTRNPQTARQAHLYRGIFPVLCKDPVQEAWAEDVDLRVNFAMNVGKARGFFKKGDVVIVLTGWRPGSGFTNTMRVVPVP

| Compound | AC50 |
| --- | --- |
| O=C(c1ccc(NS(=O)(=O)c2cccc3cccnc23)c(OC(F)(F)F)c1)N1CCN(Cc2cccc(Cl)c2)CC1 [Compound 379, N-(4-(4-(3-chlorobenzyl)piperazine-1-carbonyl)-2-(trifluoromethoxy)phenyl)quinoline-8-sulfonamide] | 100 to 500 nM |
| O=C(c1ccc(NS(=O)(=O)c2cccc3cccnc23)c(OC(F)(F)F)c1)N1CCN(Cc2ncc[nH]2)CC1 [Compound 380, N-(4-(4-((1H-imidazol-2-yl)methyl)piperazine-1-carbonyl)-2-(trifluoromethoxy)phenyl)quinoline-8-sulfonamide] | 100 to 500 nM |
| O=C(c1ccc(NS(=O)(=O)c2cccc3cccnc23)c(OC(F)(F)F)c1)N1CCN(Cc2c[nH]cn2)CC1 [Compound 381, N-(4-(4-((1H-imidazol-4-yl)methyl)piperazine-1-carbonyl)-2-(trifluoromethoxy)phenyl)quinoline-8-sulfonamide] | 100 to 500 nM |
| O=C(c1ccc(NS(=O)(=O)c2cccc3cccnc23)c(OC(F)(F)F)c1)N1CCN(Cc2ccn[nH]2)CC1 [Compound 382, N-(4-(4-((1H-pyrazol-5-yl)methyl)piperazine-1-carbonyl)-2-(trifluoromethoxy)phenyl)quinoline-8-sulfonamide] | 100 to 500 nM |
| O=C(c1ccc(NS(=O)(=O)c2cccc3cccnc23)c(OC(F)(F)F)c1)N1CCN(Cc2cn[nH]c2)CC1 [Compound 383] | 100 to 500 nM |
| O=C(c1ccc(NS(=O)(=O)c2cccc3cccnc23)cc1)N1CCN(Cc2cc[nH]n2)CC1 [Compound 384] | < 100 nM |
| O=C(c1ccc(NS(=O)(=O)c2cccc3cccnc23)cc1)N1CCN(Cc2cn[nH]c2)CC1 [Compound 385, N-(4-(4-((1H-pyrazol-4-yl)methyl)piperazine-1-carbonyl)phenyl)quinoline-8-sulfonamide] | < 100 nM |
| O=C(c1ccc(NS(=O)(=O)c2cccc3cccnc23)cc1)N1CCN(Cc2c[nH]cn2)CC1 [Compound 386, N-(4-(4-((1H-imidazol-4-yl)methyl)piperazine-1-carbonyl)phenyl)quinoline-8-sulfonamide] | 100 to 500 nM |
| C[C@@H](c1ccccc1)N1CCN(C(=O)c2ccc(NS(=O)(=O)c3cccc4cccnc34)cc2)CC1 [Compound 387, (S)—N-(4-(4-(1-phenylethyl)piperazine-1-carbonyl)phenyl)quinoline-8-sulfonamide] | < 100 nM |
| C[C@H](c1ccccc1)N1CCN(C(=O)c2ccc(NS(=O)(=O)c3cccc4cccnc34)cc2)CC1 [Compound 388, (R)—N-(4-(4-(1-phenylethyl)piperazine-1-carbonyl)phenyl)quinoline-8-sulfonamide] | < 100 nM |
| O=C(c1ccc(NS(=O)(=O)c2cccc3cccnc23)c(OC(F)(F)F)c1)N1CCN(CCCc2ccccc2)CC1 [Compound 389] | 500 to 1000 nM |
| O=C(c1ccc(NS(=O)(=O)c2cccc3cccnc23)c(OC(F)(F)F)c1)N1CCN(Cc2cc(Cl)cc(Cl)c2)CC1 [Compound 391, N-(4-(4-(3,5-dichlorobenzyl)piperazine-1-carbonyl)-2-(trifluoromethoxy)phenyl)quinoline-8-sulfonamide] | 100 to 500 nM |
| COc1cccc(OC)c1CN1CCN(C(=O)c2ccc(NS(=O)(=O)c3cccc4cccnc34)c(OC(F)(F)F)c2)CC1 [Compound 392, N-(4-(4-(2,6-dimethoxybenzyl)piperazine-1-carbonyl)-2-(trifluoromethoxy)phenyl)quinoline-8-sulfonamide] | 500 to 1000 nM |
| COc1cc(NS(=O)(=O)c2cccc3cccnc23)ccc1C(=O)N1CCN(C2(c3ccccc3)CC2)CC1 [Compound 393, N-(3-methoxy-4-(4-(1-phenylcyclopropyl)piperazine-1-carbonyl)phenyl)quinoline-8-sulfonamide] | < 100 nM |
| O=C(c1ccc(NS(=O)(=O)c2cccc3cccnc23)cc1)N1CCN(C2(c3ccccc3)CCCCC2)CC1 [Compound 407, N-(4-(4-(1-phenylcyclohexyl)piperazine-1-carbonyl)phenyl)quinoline-8-sulfonamide] | < 100 nM |

Further lines, results first:

| AC50 | Compound |
| --- | --- |
| < 100 nM | O=C(c1ccc(NS(=O)(=O)c2cccc3cccnc23)cc1)N1CCN(Cc2cc(F)cc(F)c2)CC1 [Compound 394, N-(4-(4-(3,5-difluorobenzyl)piperazine-1-carbonyl)phenyl)quinoline-8-sulfonamide] |
| < 100 nM | CC(c1cc(F)c(F)cc1F)N1CCN(C(=O)c2ccc(NS(=O)(=O)c3cccc4cccnc34)cc2)CC1 (stereo not shown) [Compound 395, N-(4-(4-(1-(2,4,5-trifluorophenyl)ethyl)piperazine-1-carbonyl)phenyl)quinoline-8-sulfonamide] |
| < 100 nM | CC(c1cc(F)cc(F)c1F)N1CCN(C(=O)c2ccc(NS(=O)(=O)c3cccc4cccnc34)cc2)CC1 (stereo not shown) [Compound 396, N-(4-(4-(1-(2,3,5-trifluorophenyl)ethyl)piperazine-1-carbonyl)phenyl)quinoline-8-sulfonamide] |
| < 100 nM | CC(c1c(F)cc(F)cc1F)N1CCN(C(=O)c2ccc(NS(=O)(=O)c3cccc4cccnc34)cc2)CC1 (stereo not shown) [Compound 397, N-(4-(4-(1-(2,4,6-trifluorophenyl)ethyl)piperazine-1-carbonyl)phenyl)quinoline-8-sulfonamide] |
| 1000 to 20000 nM | CC(c1cc(F)c(F)c(F)c1)N1CCN(C(=O)c2ccc(NS(=O)(=O)c3cccc4cccnc34)cc2)CC1 (stereo not shown) [Compound 398, N-(4-(4-(1-(3,4,5-trifluorophenyl)ethyl)piperazine-1-carbonyl)phenyl)quinoline-8-sulfonamide] |
| < 100 nM | O=C(c1ccc(NS(=O)(=O)c2cccc3cccnc23)cc1)N1CCN(C2(c3ccc(F)cc3)CC2)CC1 [Compound 399, N-(4-(4-(1-(4-fluorophenyl)cyclopropyl)piperazine-1-carbonyl)phenyl)quinoline-8-sulfonamide] |
| < 100 nM | COc1cc(C(=O)N2CCN(C3(c4ccc(F)cc4)CC3)CC2)ccc1NS(=O)(=O)c1cccc2cccnc12 [Compound 400, N-(4-(4-(1-(4-fluorophenyl)cyclopropyl)piperazine-1-carbonyl)-2-methoxyphenyl)quinoline-8-sulfonamide] |
| < 100 nM | COc1cc(NS(=O)(=O)c2cccc3cccnc23)ccc1C(=O)N1CCN(C2(c3ccc(F)cc3)CC2)CC1 [Compound 401, N-(4-(4-(1-(4-fluorophenyl)cyclopropyl)piperazine-1-carbonyl)-3-methoxyphenyl)quinoline-8-sulfonamide] |
| 100 to 500 nM | O=C(c1ccc(NS(=O)(=O)c2cccc3cccnc23)c(OC(F)(F)F)c1)N1CCN(C2(c3ccc(F)cc3)CC2)CC1 [Compound 402, N-(4-(4-(1-(4-fluorophenyl)cyclopropyl)piperazine-1-carbonyl)-2-(trifluoromethoxy)phenyl)quinoline-8-sulfonamide] |
| < 100 nM | CC(c1ccc(F)c(F)c1F)N1CCN(C(=O)c2ccc(NS(=O)(=O)c3cccc4cccnc34)cc2)CC1 (stereo not shown) [Compound 403, N-(4-(4-(1-(2,3,4-trifluorophenyl)ethyl)piperazine-1-carbonyl)phenyl)quinoline-8-sulfonamide] |
| < 100 nM | CC(c1c(F)ccc(F)c1F)N1CCN(C(=O)c2ccc(NS(=O)(=O)c3cccc4cccnc34)cc2)CC1 (stereo not shown) [Compound 404, N-(4-(4-(1-(2,3,6-trifluorophenyl)ethyl)piperazine-1-carbonyl)phenyl)quinoline-8-sulfonamide] |
| < 100 nM | CC(C)(c1cccc(F)c1)N1CCN(C(=O)c2ccc(NS(=O)(=O)c3cccc4cccnc34)cc2)CC1 [Compound 405] |
| < 100 nM | O=C(c1ccc(NS(=O)(=O)c2cccc3cccnc23)cc1)N1CCN(C2(c3ccccc3)CCCC2)CC1 [Compound 406, N-(4-(4-(1-phenylcyclopentyl)piperazine-1-carbonyl)phenyl)quinoline-8-sulfonamide] |
| < 100 nM | O=C(c1ccc(NS(=O)(=O)c2cccc3cccnc23)cc1)N1CCN(C2(c3ccccc3)CCC2)CC1 [Compound 408, N-(4-(4-(1-phenylcyclobutyl)piperazine-1-carbonyl)phenyl)quinoline-8-sulfonamide] |
| 100 to 500 nM | CC(C)(c1ccccc1F)N1CCN(C(=O)c2ccc(NS(=O)(=O)c3cccc4cccnc34)cc2)CC1 [Compound 409, N-(4-(4-(2-(2-fluorophenyl)propan-2-yl)piperazine-1-carbonyl)phenyl)quinoline-8-sulfonamide] |
| < 100 nM | CC(C)(c1cc(F)cc(F)c1)N1CCN(C(=O)c2ccc(NS(=O)(=O)c3cccc4cccnc34)cc2)CC1 [Compound 410] |
| 1000 to 20000 nM | O=C(c1ccc(NS(=O)(=O)c2cccc3cccnc23)nc1)N1CCN(CC2CC2)CC1 [Compound 411, N-(5-(4-(cyclopropylmethyl)piperazine-1-carbonyl)pyridin-2-yl)quinoline-8-sulfonamide] |
| 100 to 500 nM | O=C(c1ccc(NS(=O)(=O)c2cccc3cccnc23)nc1)N1CCN(Cc2ccc(F)cc2)CC1 [Compound 412, N-(5-(4-(4-fluorobenzyl)piperazine-1-carbonyl)pyridin-2-yl)quinoline-8-sulfonamide] |
| 100 to 500 nM | O=C(c1ccc(NS(=O)(=O)c2cccc3cccnc23)nc1)N1CCN(Cc2cc(F)cc(F)c2)CC1 [Compound 413, N-(5-(4-(3,5-difluorobenzyl)piperazine-1-carbonyl)pyridin-2-yl)quinoline-8-sulfonamide] |
| 100 to 500 nM | O=C(c1ccc(NS(=O)(=O)c2cccc3cccnc23)cn1)N1CCN(Cc2cc(F)cc(F)c2)CC1 [Compound 414, N-(6-(4-(3,5-difluorobenzyl)piperazine-1-carbonyl)pyridin-3-yl)quinoline-8-sulfonamide] |
| 100 to 500 nM | O=C(c1ccc(NS(=O)(=O)c2cccc3cccnc23)cn1)N1CCN(CC2CC2)CC1 [Compound 415, N-(6-(4-(cyclopropylmethyl)piperazine-1-carbonyl)pyridin-3-yl)quinoline-8-sulfonamide] |
| 100 to 500 nM | O=C(c1ccc(NS(=O)(=O)c2cccc3cccnc23)cn1)N1CCN(Cc2ccc(F)cc2)CC1 [Compound 416, N-(6-(4-(4-fluorobenzyl)piperazine-1-carbonyl)pyridin-3-yl)quinoline-8-sulfonamide] |

From patent US8889667B2 (Agios Pharmaceuticals, Inc, priority 2010, dated 2014)
